Laboratory results from PubChem BioAssay AID256 (DTP/NCI, 2004).
“And” between values parts separate entries of the source, which are not always exact repeats. Equal values may be shown once. Inconclusive results and toxic doses are left out. Rule for the calls: active = survival T/C of 150% or more; inactive = T/C below 125% in these data.

System: CD2F1 mice, L1210 leukemia ip, survival T/C
Assay: NCI In Vivo Anticancer Drug Screen. Data for tumor model L1210 Leukemia (intraperitoneal) in CD2F1 (CDF1) mice
Details: endpoint: mean survival time, higher = longer survival
Outline: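 Antitumor effect is scored in animals hosting a serially transplanted tumor. Values compare compound-dosed animals against vehicle-only controls as a simple quotient.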

[1] = dose: 50.0 mg/kg/injection, schedule: Q01DX001 (ip), vehicle: saline with Tween-80
[2] = dose: 100.0 mg/kg/injection, schedule: Q01DX001 (ip), vehicle: saline with Tween-80
[3] = dose: 200.0 mg/kg/injection, schedule: Q01DX001 (ip), vehicle: saline with Tween-80
[4] = dose: 12.5 mg/kg/injection, schedule: Q01DX009 (ip), vehicle: saline with Tween-80
[5] = dose: 25.0 mg/kg/injection, schedule: Q01DX009 (ip), vehicle: saline with Tween-80
[6] = dose: 50.0 mg/kg/injection, schedule: Q01DX009 (ip), vehicle: saline with Tween-80
[7] = dose: 100.0 mg/kg/injection, schedule: Q01DX009 (ip), vehicle: saline with Tween-80
[8] = dose: 200.0 mg/kg/injection, schedule: Q01DX009 (ip), vehicle: saline with Tween-80
[9] = dose: 400.0 mg/kg/injection, schedule: Q01DX001 (ip), vehicle: saline with Tween-80

Measured: T/C

CCCCCC(=O)SCC(=O)OCC(=O)[C@]1(O)Cc2c(O)c3c(c(O)c2[C@@H](OC2CC(N)C(O)C(C)O2)C1)C(=O)c1c(OC)cccc1C3=O (stereo partly specified)
inactive: dose: 0.39 mg/kg/injection, schedule: Q01DX005 (ip), vehicle: water 115 % of control and 110 % of control | dose: 0.78 mg/kg/injection, schedule: Q01DX005 (ip), vehicle: water 116 % of control and 124 % of control | dose: 1.56 mg/kg/injection, schedule: Q01DX005 (ip), vehicle: water 118 % of control | dose: 6.25 mg/kg/injection, schedule: Q01DX005 (ip), vehicle: water 104 % of control

O=C(O)CS(=O)c1ccc(Cl)cc1 (stereo unspecified)
inactive: [1] 104 % of control | [2] 95 % of control | [3] 88 % of control

O=C1N(Cl)C2C(N1Cl)N(Cl)C(=O)N2Cl (stereo unspecified)
inactive: dose: 25.0 mg/kg/injection, schedule: Q04DX003 (ip), vehicle: saline with Tween-80 98 % of control | dose: 50.0 mg/kg/injection, schedule: Q04DX003 (ip), vehicle: saline with Tween-80 104 % of control | dose: 100.0 mg/kg/injection, schedule: Q04DX003 (ip), vehicle: saline with Tween-80 89 % of control

OCCOCC(F)(F)F
inactive: dose: 6.25 mg/kg/injection, schedule: Q01DX009 (ip), vehicle: saline with Tween-80 100 % of control | [4] 90 % of control and 112 % of control | [5] 95 % of control and 102 % of control | [6] 94 % of control and 100 % of control | [7] 94 % of control and 100 % of control | [8] 94 % of control and 110 % of control

CC([NH-])C(=O)O.CC([NH-])C(=O)O.CC([NH-])C(=O)O.[Co+3] (stereo unspecified)
inactive: dose: 6.25 mg/kg/injection, schedule: Q01DX009 (ip), vehicle: saline 98 % of control | dose: 12.5 mg/kg/injection, schedule: Q01DX009 (ip), vehicle: saline 112 % of control | dose: 25.0 mg/kg/injection, schedule: Q01DX009 (ip), vehicle: saline 107 % of control | dose: 50.0 mg/kg/injection, schedule: Q01DX009 (ip), vehicle: saline 124 % of control

N#CC(/C=C/c1ccccc1)Nc1ccc(CCc2ccc(NC(C#N)/C=C/c3ccccc3)cc2)cc1 (stereo unspecified)
inactive: [7] 94 % of control | [8] 90 % of control | dose: 400.0 mg/kg/injection, schedule: Q01DX009 (ip), vehicle: saline with Tween-80 100 % of control

O=c1scc(-c2ccc([N+](=O)[O-])cc2)s1
inactive: dose: 12.5 mg/kg/injection, schedule: Q04DX003 (ip), vehicle: Klucel (hydroxypropylcellulose) (HPC) 104 % of control | dose: 25.0 mg/kg/injection, schedule: Q04DX003 (ip), vehicle: Klucel (hydroxypropylcellulose) (HPC) 91 % of control

O=C(Nc1cccc(C(F)(F)F)c1)c1cccc(C(=O)Nc2cccc(C(F)(F)F)c2)c1
inactive: [4] 92 % of control | [5] 89 % of control | [6] 89 % of control

CCCC/C=C\C(=O)O
inactive: [6] 102 % of control | [7] 102 % of control | [8] 98 % of control

O=C1C=C(N2C3C4CCC(C4)C32)C(=O)C=C1c1ccccc1 (stereo unspecified)
inactive: [1] 96 % of control and 98 % of control and 108 % of control | [2] 121 % of control and 94 % of control and 96 % of control | [3] 115 % of control and 97 % of control and 102 % of control | [9] 102 % of control

O=C(OC1C=CCC=C1)c1cc([N+](=O)[O-])cc([N+](=O)[O-])c1
inactive: dose: 100.0 mg/kg/injection, schedule: Q01DX009 (ip), vehicle: other 101 % of control | dose: 200.0 mg/kg/injection, schedule: Q01DX009 (ip), vehicle: other 95 % of control | dose: 400.0 mg/kg/injection, schedule: Q01DX009 (ip), vehicle: other 93 % of control

COc1cc(OC)c(/C=C/c2cc3c4ccccc4ccc3[n+](C)c2)c(OC)c1
inactive: dose: 12.5 mg/kg/injection, schedule: Q01DX001 (ip), vehicle: saline with Tween-80 104 % of control | dose: 25.0 mg/kg/injection, schedule: Q01DX001 (ip), vehicle: saline with Tween-80 112 % of control | [1] 101 % of control | [2] 94 % of control

O=c1oc(-c2cc([N+](=O)[O-])ccc2Cl)nc2ccccc12
inactive: [6] 95 % of control | [7] 90 % of control | [8] 95 % of control

O=C1OC(c2c[nH]c3ccccc23)c2ccccc21 (stereo unspecified)
inactive: [2] 94 % of control | [3] 94 % of control | [9] 87 % of control

CC[P+]1(c2ccccc2)CCCc2ccc3ccccc3c21 (stereo unspecified)
inactive: dose: 12.5 mg/kg/injection, schedule: Q04DX003 (ip), vehicle: saline 117 % of control | dose: 25.0 mg/kg/injection, schedule: Q04DX003 (ip), vehicle: saline 110 % of control

CC1(C)CCC2(CC1)CC(=O)OC(=O)C2
inactive: [2] 90 % of control | [3] 87 % of control | [9] 92 % of control

NC(=O)N/N=C1\CC(S(=O)(=O)O)NC(=O)N1 (stereo unspecified)
inactive: dose: 50.0 mg/kg/injection, schedule: Q04DX002 (ip), vehicle: saline with Tween-80 98 % of control | dose: 100.0 mg/kg/injection, schedule: Q04DX002 (ip), vehicle: saline with Tween-80 95 % of control | dose: 200.0 mg/kg/injection, schedule: Q04DX002 (ip), vehicle: saline with Tween-80 95 % of control
